Data: patent publication US11878975B2, “Substituted indole compounds useful as TLR inhibitors” (BRISTOL-MYERS SQUIBB COMPANY, priority 2017, dated 2024)

Columns and labels:
Format in all cases: cell-based
human TLR8 = biological target: T1, human TLR8 (Homo sapiens, UniProt Q9NR97); experiment: TLR8 inhibition reporter assay (HEK-Blue cells, SEAP reporter, R848 stimulation); conditions: HEK-Blue cells overexpressing human TLR8, SEAP reporter, R848 15.9 μM
T1 construct: host or cells: HEK-Blue cells
T1 sequence (Q9NR97 27-1041): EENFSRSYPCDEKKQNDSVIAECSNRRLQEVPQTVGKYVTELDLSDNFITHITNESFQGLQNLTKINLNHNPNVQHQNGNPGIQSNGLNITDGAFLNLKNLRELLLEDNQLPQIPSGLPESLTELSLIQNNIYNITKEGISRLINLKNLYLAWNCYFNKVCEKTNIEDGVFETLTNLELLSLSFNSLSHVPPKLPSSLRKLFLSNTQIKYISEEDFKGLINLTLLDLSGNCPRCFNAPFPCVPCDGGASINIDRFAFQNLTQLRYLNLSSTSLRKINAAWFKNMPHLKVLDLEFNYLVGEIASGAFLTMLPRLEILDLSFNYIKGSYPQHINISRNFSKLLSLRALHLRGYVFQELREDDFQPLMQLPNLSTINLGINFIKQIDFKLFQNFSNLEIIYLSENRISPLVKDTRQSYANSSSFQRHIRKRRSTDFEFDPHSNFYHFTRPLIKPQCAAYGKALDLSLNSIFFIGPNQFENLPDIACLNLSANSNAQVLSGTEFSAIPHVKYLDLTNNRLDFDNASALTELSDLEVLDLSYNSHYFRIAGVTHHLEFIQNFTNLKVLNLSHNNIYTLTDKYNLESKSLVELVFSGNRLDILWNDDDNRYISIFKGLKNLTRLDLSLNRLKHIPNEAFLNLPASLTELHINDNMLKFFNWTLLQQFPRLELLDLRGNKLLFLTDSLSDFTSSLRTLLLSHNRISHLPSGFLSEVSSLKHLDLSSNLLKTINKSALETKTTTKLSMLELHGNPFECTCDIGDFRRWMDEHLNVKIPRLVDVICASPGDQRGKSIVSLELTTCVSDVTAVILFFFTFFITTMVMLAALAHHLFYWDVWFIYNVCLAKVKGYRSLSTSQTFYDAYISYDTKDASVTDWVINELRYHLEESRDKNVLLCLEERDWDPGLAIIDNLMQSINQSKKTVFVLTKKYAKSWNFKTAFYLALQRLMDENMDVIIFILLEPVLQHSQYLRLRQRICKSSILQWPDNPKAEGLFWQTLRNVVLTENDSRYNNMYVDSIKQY
Summary of the method: (§1)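 Percent inhibition is derived from SEAP signal, scaled between agonist-plus-DMSO wells and wells given a known inhibitor. Test compounds (0.05 nM–50 μM) are pre-incubated 30 min at room temperature before agonist addition (TLR7: 7.5 μM gardiquimod; TLR8: 15.9 μM R848; TLR9: 5 nM ODN2006) and 22 h culture at 37 °C.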

human TLR9 = biological target: T2, human TLR9 (Homo sapiens, UniProt Q9NR96); experiment: TLR9 inhibition reporter assay (HEK-Blue cells, SEAP reporter, ODN2006 stimulation); conditions: HEK-Blue cells overexpressing human TLR9, SEAP reporter, ODN2006 5 nM
T2 construct: host or cells: HEK-Blue cells
T2 sequence (Q9NR96 26-1032): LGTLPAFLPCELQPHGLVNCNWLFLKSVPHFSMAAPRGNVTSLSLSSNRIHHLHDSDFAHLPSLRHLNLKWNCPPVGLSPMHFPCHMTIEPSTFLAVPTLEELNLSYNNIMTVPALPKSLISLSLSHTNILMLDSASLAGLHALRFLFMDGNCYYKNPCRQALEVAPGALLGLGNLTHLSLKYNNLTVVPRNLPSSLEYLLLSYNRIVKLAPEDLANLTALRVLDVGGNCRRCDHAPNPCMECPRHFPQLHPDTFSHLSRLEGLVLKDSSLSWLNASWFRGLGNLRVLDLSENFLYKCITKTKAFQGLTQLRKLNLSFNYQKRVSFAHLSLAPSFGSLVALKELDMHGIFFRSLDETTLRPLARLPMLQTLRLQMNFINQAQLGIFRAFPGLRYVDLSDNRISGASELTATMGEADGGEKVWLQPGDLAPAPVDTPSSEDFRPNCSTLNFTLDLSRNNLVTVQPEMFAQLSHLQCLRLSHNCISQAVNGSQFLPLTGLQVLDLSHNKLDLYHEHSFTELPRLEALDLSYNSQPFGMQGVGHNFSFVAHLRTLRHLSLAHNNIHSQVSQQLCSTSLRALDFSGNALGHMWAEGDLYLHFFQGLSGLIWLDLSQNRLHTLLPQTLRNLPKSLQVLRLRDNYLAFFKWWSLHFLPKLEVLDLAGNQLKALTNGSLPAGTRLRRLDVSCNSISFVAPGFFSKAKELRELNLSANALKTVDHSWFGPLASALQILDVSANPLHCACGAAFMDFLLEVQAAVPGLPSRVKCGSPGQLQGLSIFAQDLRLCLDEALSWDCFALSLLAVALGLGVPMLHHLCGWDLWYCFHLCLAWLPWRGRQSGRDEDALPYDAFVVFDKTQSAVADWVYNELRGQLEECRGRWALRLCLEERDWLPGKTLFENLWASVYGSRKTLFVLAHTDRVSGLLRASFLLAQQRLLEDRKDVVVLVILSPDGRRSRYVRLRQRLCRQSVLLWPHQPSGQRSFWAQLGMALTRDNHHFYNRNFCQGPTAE
Summary of the method: as §1

human TLR7 = biological target: T3, human TLR7 (Homo sapiens, UniProt Q9NYK1); experiment: TLR7 inhibition reporter assay (HEK-Blue cells, SEAP reporter, gardiquimod stimulation); conditions: HEK-Blue cells overexpressing human TLR7, SEAP reporter, gardiquimod 7.5 μM
T3 construct: host or cells: HEK-Blue cells
T3 sequence (Q9NYK1 27-1049): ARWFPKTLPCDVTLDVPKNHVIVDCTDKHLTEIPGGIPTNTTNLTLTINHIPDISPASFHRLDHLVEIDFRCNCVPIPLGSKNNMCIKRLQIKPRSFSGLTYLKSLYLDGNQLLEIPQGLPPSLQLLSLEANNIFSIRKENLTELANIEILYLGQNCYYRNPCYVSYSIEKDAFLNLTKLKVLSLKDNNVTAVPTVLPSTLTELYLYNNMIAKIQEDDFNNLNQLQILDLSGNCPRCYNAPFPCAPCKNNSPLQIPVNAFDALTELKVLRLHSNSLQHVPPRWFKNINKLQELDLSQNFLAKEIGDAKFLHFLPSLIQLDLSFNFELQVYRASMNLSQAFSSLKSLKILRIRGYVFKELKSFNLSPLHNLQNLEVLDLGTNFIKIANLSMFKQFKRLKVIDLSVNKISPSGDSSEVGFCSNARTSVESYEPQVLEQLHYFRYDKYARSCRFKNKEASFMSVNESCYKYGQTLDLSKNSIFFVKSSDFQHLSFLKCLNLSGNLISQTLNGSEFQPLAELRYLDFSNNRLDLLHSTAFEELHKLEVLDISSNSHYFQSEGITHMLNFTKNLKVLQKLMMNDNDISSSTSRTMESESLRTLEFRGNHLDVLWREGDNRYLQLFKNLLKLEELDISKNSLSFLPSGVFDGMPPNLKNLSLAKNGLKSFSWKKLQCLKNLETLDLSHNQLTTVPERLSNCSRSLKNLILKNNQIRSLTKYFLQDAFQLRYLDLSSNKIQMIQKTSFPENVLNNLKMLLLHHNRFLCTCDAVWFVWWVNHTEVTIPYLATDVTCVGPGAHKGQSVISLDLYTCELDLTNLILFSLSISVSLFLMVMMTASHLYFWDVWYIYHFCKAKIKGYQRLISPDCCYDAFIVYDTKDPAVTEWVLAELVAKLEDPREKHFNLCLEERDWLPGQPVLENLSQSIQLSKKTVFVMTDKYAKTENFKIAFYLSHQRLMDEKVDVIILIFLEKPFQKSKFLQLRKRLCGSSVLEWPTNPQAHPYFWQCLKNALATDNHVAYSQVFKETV
Summary of the method: as §1

SMILES	IC50 (human TLR8)	IC50 (human TLR9)	IC50 (human TLR7)
COc1cc(-c2[nH]c3ccc(C4CCC(NS(C)(=O)=O)CC4)cc3c2C(C)C)cn2ncnc12 (stereo not drawn) [Example 117, N-(4-(3-isopropyl-2-(8-methoxy-[1,2,4]triazolo[1,5-a]pyridin-6-yl)-1H-indol-5-yl)cyclohexyl)methanesulfonamide]	9.8 nM	14100 nM	0.7 nM
Cc1c(-c2[nH]c3ccc(C4CN(C(=O)CN(C)C)C4)cc3c2C(C)C)cn(C)c(=O)c1C [Example 484]	9.5 nM	16500 nM	41 nM
Cc1c(-c2[nH]c3ccc(C4CN(CCCC(F)(F)F)C4)cc3c2C(C)C)cn2cnnc2c1C [Example 554]	15 nM	5200 nM	18 nM
CNCC(=O)N1CCOC(c2ccc3[nH]c(-c4cc(OC)c5ncnn5c4)c(C(C)C)c3c2)C1 (stereo not drawn) [Example 339]	6 nM	863 nM	1 nM
COc1cc(-c2[nH]c3ccc(C4CCC(N(C)CC(F)F)CC4)cc3c2C(C)C)cn2ncnc12 (stereo not drawn) [Example 74]	13 nM	24500 nM	3 nM
Cc1cc(-c2[nH]c3ccc(CCN4CCCC4)cc3c2C(C)C)cn(C)c1=O [Example 405]	8.4 nM	13700 nM	35 nM
Cc1c(-c2[nH]c3ccc(C4CCC(N5CC(F)(F)C5)CC4)cc3c2C(C)C)cn2ncnc2c1C (stereo not drawn) [Example 25]	180 nM	> 50000 nM	49 nM
Cc1cc(-c2[nH]c3ccc(C4CCC(N5CCN(C)CC5)CC4)cc3c2C(C)C)cc(C)n1 (single isomer, unassigned) [Example 36]	3.9 nM	417 nM	2 nM
Cc1cc(-c2[nH]c3ccc(C4CCC(C(=O)N5CCCCC5)CC4)cc3c2C(C)C)cn2ncnc12 (single isomer, unassigned) [Example 159]	1850 nM	28600 nM	1690 nM
Cc1cc(-c2[nH]c3ccc(C4CCCN(C(=O)CN5CCOCC5)C4)cc3c2C(C)C)cc(C)n1 (stereo not drawn) [Example 196]	84 nM	31600 nM	16 nM
CCCN1CC(c2ccc3[nH]c(-c4cn(C)c(=O)c(C)c4C)c(C(C)C)c3c2)C1 [Example 488]	6 nM	4240 nM	22 nM
Cc1c(-c2[nH]c3ccc(C4CC5CN(C(=O)CN(C)C)CC5C4)cc3c2C(C)C)cn2cnnc2c1C (stereo not drawn) [Example 521]	37 nM	7020 nM	4 nM
COc1cc(-c2[nH]c3ccc(C4CCC(N(C)C(C)C)C4)cc3c2C(C)C)cn2ncnc12 (single isomer, unassigned) [Example 277, N-isopropyl-3-(3-isopropyl-2-(8-methoxy-[1,2,4]triazolo[1,5-a]pyridin-6-yl)-1H-indol-5-yl)-N-methylcyclopentan-1-amine]	4.4 nM	801 nM	2 nM
Cc1cc(-c2[nH]c3ccc([C@@H]4C[C@H]4C(=O)N(C)C4CC5CCN4CC5)cc3c2C(C)C)ccn1 (stereo partly drawn) [Example 463]	15 nM	406 nM	35 nM
Cc1c(-c2[nH]c3ccc(CC4CNC4)cc3c2C(C)C)cn(C)c(=O)c1C [Example 417]	36 nM	2110 nM	76 nM
Cc1cc(-c2[nH]c3ccc(C4CCC(NC5CC5)CC4)cc3c2C(C)C)cn2ncnc12 (single isomer, unassigned) [Example 15]	8.9 nM	3590 nM	4 nM

Next, values leading:

IC50 (human TLR8)	IC50 (human TLR9)	IC50 (human TLR7)	SMILES
0.9 nM	2750 nM	2 nM	COc1cc(-c2[nH]c3ccc(CCN4CCN(C)CC4)cc3c2C(C)C)cn2ncnc12 [Example 413]
3.9 nM	201 nM	1 nM	Cc1cc(-c2[nH]c3ccc(C4CCC(NC5COC5)CC4)cc3c2C(C)C)cc(C)n1 (stereo not drawn) [Example 61]
0.35 nM	14800 nM	2 nM	Cc1c(-c2[nH]c3ccc(C4CNC(C)(C)CO4)cc3c2C(C)C)cn2ncnc2c1C (stereo not drawn) [Example 370]
0.46 nM	1250 nM	1 nM	COc1cc(-c2[nH]c3ccc(C4CCCN(C(C)C)C4)cc3c2C(C)C)cn2ncnc12 (stereo not drawn) [Example 236, 6-(3-isopropyl-5-(1-isopropylpiperidin-3-yl)-1H-indol-2-yl)-8-methoxy-[1,2,4]triazolo[1,5-a]pyridine]
2 nM	2320 nM	6 nM	Cc1c(-c2[nH]c3ccc(C4CCC(NCC(C)(C)O)CC4)cc3c2C(C)C)cn2ncnc2c1C (stereo not drawn) [Example 112]
1.6 nM	6070 nM	4 nM	Cc1c(-c2[nH]c3ccc(C4CC(N)C4)cc3c2C(C)C)cn(C)c(=O)c1C (stereo not drawn) [Example 492]
3.4 nM	271 nM	28 nM	Cc1cc(-c2[nH]c3ccc([C@@H]4C[C@H]4CN4CCCC4)cc3c2C(C)C)ccn1 [Example 464]
1.2 nM	2380 nM	0.41 nM	COc1cc(-c2[nH]c3ccc(C4CCC(N5CC(F)C5)CC4)cc3c2C(C)C)cn2ncnc12 (stereo not drawn) [Example 21]
